The test system of data set [1] is Fadu. Nature of the data set: In vitro inhibition of human tumor cells, Fadu, MTT method. In kind it is cell-based.
For data set [2], the system named is human colon cancer LoVo. The following applies: 30 mg/kg i.v. qw × 2; LoVo model.
Description: An allogeneic transplantation model of human colon cancer LoVo was established in nude mice subcutaneously using a tumor block inoculation method. When the tumor volume of the allogeneic transplantation was about 100 to 300 mm^3 and kept stable, the experimental animals were randomly divided into groups according to the tumor volume (day 0) by using a remainder method. The tumor volume was measured 2 to 3 times a week. At the end of the dosage period, the experimental animals were sacrificed. The subcutaneous tumors were peeled and weighed. The anti-tumor activity of the drug against the model was evaluated based on tumor volume and tumor weight-related data.
(§6) The calculation formula of the tumor volume was: Volume=0.5×long diameter×short diameter×short diameter.
V0 was the resulting tumor volume measured at the time of dosing in groups (i.e., d0) and Vt is the tumor volume at each measurement.
(§7) T was the subject and C was the model control.
TRTV was the average RTV of the subject and CRTV was the average RTV of the model control group.
(§8) Wn: average body weight of each group of experimental animals on day n, and W0: average body weight of each group of experimental animals on day 0.
Data set [3] relates to BEL-7404. Briefly: In vitro inhibition of human tumor cells, BEL-7404, SRB method. In general terms: The SRB assay estimates cell density from bound dye.
Description: (§9) 1.1.2 Cell culture method: Cells were cultured in complete medium, 37° C., 5% CO2, saturated humidity to log growth phase (adherent cells generally attended to complete fusion), and cells were collected for subsequent experiments (adherent cells were first digested with trypsin/ethylene diamine tetraacetic acid (EDTA) to remove adherent).
(§10) 1.1.3 96-well cell culture plates (hereinafter referred to as 96-well plates) were inoculated with a certain number of cells (see Table 1 for details). The cells were allowed to adhere overnight. […] Finally, the total amount of cell protein in the assay wells was determined by the SRB method, or the cell viability was determined by the MTT method:
(§11) The culture medium was aspirated from the wells and the cells were fixed for 1 hour or more by adding 10% trichloroacetic acid. Trichloroacetic acid was removed. The resultant was washed with H2O and stained with 0.4% SRB for 15 to 30 minutes. Excess SRB was removed. The resultant was washed with 1% acetic acid. The protein-bound SRB was dissolved by adding 10 mM of 100 μl Tris (trishydroxymethylaminomethane). Tests were carried out at the wavelength of 570 nm.
(§12) 1.1.4 dilution and addition of β-glucuronidase: 1 to 2 mg of β-glucuronidase was weighed and dissolved in PBS to give a 2 mg/ml of stock solution. […] 80 μl of enzyme working solution was added to the enzyme-containing assay wells. The amount of β-glucuronidase was 1 μg/wells. No enzyme-containing assay wells were added to the 80 μl of complete medium.
(§13) The assay wells were charged with 20 μl of 10× compound working solution. The final volume was 200 μl per well. The DMSO concentration was 0.1%.
(§14) 1.1.6 Compound inhibition activity calculation: The test included a compound test group, a compound-free positive solvent control group (PC) and a compound-free negative solvent control group (NC). […] The average inhibition rate and the standard deviation (SD) were obtained from the repeated test wells. The average inhibition rate was plotted on the basis of the compound concentration as an abscissa and distributed in the form of logarithms. The curve was fitted to the Logistic 4 parameter equation. […] The test was generally repeated to obtain 3 valid results.
The test system of data set [4] is BxPC-3. Briefly: In vitro inhibition of human tumor cells, BxPC-3, MTT method. The class given is cell-based. The procedure:
(§1) The cells were allowed to adhere overnight.
(§2) Adherent cells: Culture medium was aspirated and 100 μl/wells of basal culture (generally refers to medium without fetal bovine serum (FBS) and other additives) containing 0.5 mg/ml MTT were added. The cells were cultured for 3 hours. MTT-containing basal medium was aspirated and 100 μl/wells of DMSO were added to dissolve formazan.
(§3) Unstably adherent cells: Unstably adherent cells were directly added to the MTT solution to achieve the concentration of 0.5 mg/ml and cultured for 3 hours. The ternary solution in an equal volume to the system was added to the system to dissolve the formazan.
(§4) The DMSO concentration was 0.1%.

In data set [5] the test system is NCI-H460. Nature of the data set: In vitro inhibition of human tumor cells, NCI-H460, MTT method. The class given is cell-based. The protocol: as §1, §2, §3, §4
Data set [6] has as its system human colon cancer SW620. The following applies: 30 mg/kg i.v. qw × 2; SW620 model.
Description: An allogeneic transplantation model of human colon cancer SW620 was established in nude mice subcutaneously using a tumor block inoculation method. When the tumor volume of the allogeneic transplantation was about 100 to 300 mm^3 and remained stable, the experimental animals were randomly divided into groups according to the size of the tumor volume (day 0) by using a remainder method. The tumor volume was measured 2 to 3 times a week. At the end of the dosage period, the experimental animals were sacrificed. The subcutaneous tumors were peeled and weighed. The anti-tumor activity of the drug against the model was evaluated based on tumor volume and tumor weight-related data.
as §6
(§15) V0 was the resulting tumor volume measured at the time of dosing in groups (i.e., d0) and Vt was the tumor volume at each measurement.
TRTV was the average value of RTV of the subject, and CRTV was the average RTV of the model control group.
as §8
Data set [7] deals with HCT116. Nature of the data set: In vitro inhibition of human tumor cells, HCT116, MTT method. In kind it is cell-based. The protocol: as §1, §2, §3, §4
Data set [8] concerns A375. Nature of the data set: In vitro inhibition of human tumor cells, A375, SRB method.
Description: as §9, §10, §11, §12, §13, §14
Data set [9] has as its system SW620. Briefly: In vitro inhibition of human tumor cells, SW620, SRB method. The class given is cell-based.
Description: as §1
(§5) Trichloroacetic acid was removed. […] Excess SRB was removed.
as §4

Data set [10] relates to MDA-MB-468. Briefly: In vitro inhibition of human tumor cells, MDA-MB-468, SRB method.
Description: as §9, §10, §11, §12, §13, §14
Data set [11] relates to LoVo. Briefly: In vitro inhibition of human tumor cells, LoVo, SRB method. The class given is cell-based.
Description: as §1, §5, §4

The test system of data set [12] is 22RV1. Briefly: In vitro inhibition of human tumor cells, 22RV1, SRB method.
Description: as §9, §10, §11, §12, §13, §14
Data set [13] concerns human colon cancer HCT116. Briefly: Growth of human colon cancer HCT116 in allogeneic transplantation model. In kind it is in vivo, nude mice. As to conditions: 10 mg/kg i.v. qw × 2.
Description: (§16) When the tumor volume of the allogeneic transplantation was about 100 to 300 mm^3 and remained stable, the experimental animals were randomly divided into groups according to the size of the tumor volume (day 0) by using a remainder method. The tumor volume was measured 2 to 3 times a week. At the end of the dosage period, the experimental animals were sacrificed. The subcutaneous tumors were peeled and weighed. The anti-tumor activity of the drug against the model was evaluated based on tumor volume and tumor weight-related data.
as §6, §15
(§17) TRTV was the average RTV of the subject, and CRTV was the average RTV of the model control group.
as §8
Data set [14] concerns NCI-N87. Nature of the data set: In vitro inhibition of human tumor cells, NCI-N87, MTT method. In kind it is cell-based. In general terms: Tetrazolium assays rely on reduction of a dye to a coloured formazan, in cell work by metabolically active cells.
The subject of data set [15] is human small cell lung cancer NCI-H446. As to conditions: 20 mg/kg i.v. qw × 2; NCI-H446 model.
Description: An allogeneic transplantation model of human small cell lung cancer NCI-H446 was established in nude mice subcutaneously using a tumor block inoculation method. When the tumor volume of the allogeneic transplantation was about 100 to 300 mm^3 and remained stable, the experimental animals were randomly divided into groups according to the size of the tumor volume (day 0, i.e., d0) using a remainder method. The tumor volume was measured 2 to 3 times a week. At the end of the dosage period, the experimental animals were sacrificed. The subcutaneous tumors were peeled and weighed. The anti-tumor activity of the drug against the model was evaluated based on tumor volume and tumor weight-related data.
as §6, §15, §7, §17, §8
The subject of data set [16] is human colon cancer HCT116. The following applies: 30 mg/kg i.v. qw × 2; HCT116 large tumor after irinotecan. From the text: When the tumor volume was more than 600 mm^3 and stable growth was maintained, the experimental animals were randomly divided by the remainder method and administered according to the size of the tumor volume. […] The subcutaneous tumors were stripped and weighed.
T was the subject and C is the model control.
Tumor volume growth was observed on a regular basis after completion of dosing.

Data set [17] deals with human gastric cancer NCI-N87. Briefly: Growth of human gastric cancer NCI-N87 in allogeneic transplantation model. The following applies: for Relative volume RTV (X ± S.D.) / T/C (%) / Tumor inhibition rate (%) / Tumor weight (g, X ± S.D.): 20 mg/kg i.v. qw × 2. In kind it is in vivo, nude mice. The procedure: The tumor volume was measured 2 to 3 times per week. […] The subcutaneous tumors were peeled and weighed.
The calculation formula of the tumor volume: Volume=0.5×long diameter×short diameter×short diameter.

Data set [18] has as its system human pancreatic cancer BxPC-3. As to conditions: 30 mg/kg i.v. qw × 2.
Description: as §16, §6, §15, §7, §17, §8
(§18) In the large tumor efficacy test after the second grouping of the G5 group, since the number of samples in each group of G6.1 and G6.4 was less than three, the relevant data of the large tumor efficacy test were statistically analyzed among groups using the T-Test method.
Data set [19] has as its system human pancreatic cancer BxPC-3. Nature of the data set: Growth of human pancreatic cancer BxPC-3 in allogeneic transplantation model. The following applies: 25 mg/kg i.v. qw × 2, BxPC-3 model. In kind it is in vivo, nude mice.
Description: as §16, §6, §15, §7, §17, §8, §18
The mark [20] stands for this setting: No βGU (direct effects of compound on cells).
Setting [21] is: BxPC-3 large tumors after irinotecan.

Read-outs that look alike come from different tables or passages of the source.

Consider “4-amino-6-((E)-(4′-(6-(4-((2-(((S)-4,11-diethyl-4-hydroxy-3,14-dioxy-3,4,12,14-tetrahydro-1H-pyrano[3′,4′:6,7]indolazo[1,2-b]quinolin-9-yl)oxy)methyl)-5-(((2S,3R,4S,5 S,6S)-3,4,5-trihydroxy-6-(methoxycarbonyl)tetrahydro-2H-pyran-2-yl)oxy)phenoxy)methyl)-1H-1,2,3-triazol-1-yl)hexanamido)-3,3′-dimethyl-[1,1′-biphenyl]-4-yl)diazenyl)-5-hydroxynaphthalene-1,3-disulfonate disodium [Example 21]”, for which the concentration for half-maximal inhibition (IC50) was found to be 9.8 nM in [1] (Adding βGU); 298 nM in data set [1] (No βGU); 28 nM in data set [3] (Adding βGU); 439 nM in [3] (No βGU); 62 nM in [4] (Adding βGU); 688 nM in data set [4] (No βGU). In addition, the half-inhibitory concentration (IC50) in [5] (Adding βGU) came out at 80 nM; in [5] (No βGU), 770 nM; in [7] (Adding βGU (β-glucuronidase)), 35 nM; in [7] (setting [20]) it was 244 nM; in data set [8] (Adding βGU) it was 8.8 nM; in [8] (No βGU) it was 556 nM. The concentration for half-maximal inhibition (IC50) in [9] (Adding βGU) stood at 23 nM; in data set [9] (No βGU), 764 nM; in [10] (Adding βGU), 42 nM; in [10] (No βGU) it was 177 nM; in data set [11] (Adding βGU) it was 45 nM; in data set [11] (No βGU) it was 720 nM. For the same substance, the half-maximal inhibitory concentration (IC50) in data set [12] (Adding βGU) is 14.5 nM; in data set [12] (No βGU), 399 nM. The “T/C (%)” value in data set [2] came out at 9.8%; in data set [6], 0.5%. In addition, the “Tumor inhibition rate (%)” value was found to be 93.1% in data set [2] and 99.8% in [6].

“(2S,3S,4S,5R,6S)-6-(3-((1-(2-(2-(2-((4′-((E)-(8-amino-1-hydroxy-5,7-disulfononaphthalen-2-yl)diazenyl)-3,3′-dimethoxy-[1,1′-biphenyl]-4-yl)amino)-2-oxoethoxy)ethoxy)ethyl)-1H-1,2,3-triazol-4-yl)methoxy)-4-(((S)-4,11-diethyl-4-hydroxy-3,14-dioxo-3,4,12,14-tetrahydro-1H-pyrano[3′,4′:6,7]indolazino[1,2-b]quinolin-9-yl)oxy)methyl)phenoxy)-3,4,5-trihydroxytetrahydro-2H-pyran-2-carboxylate trisodium [Example 61]”: the IC50 was found to be 15 nM in data set [1] (Adding βGU); 498 nM in [1] (No βGU); 40 nM in data set [3] (Adding βGU); 565 nM in [3] (No βGU); 7.1 nM in [4] (Adding βGU); 915 nM in [4] (No βGU). Further, the IC50 in data set [14] (Adding βGU) was 33 nM; in [14] (No βGU) it was 395 nM; in [5] (Adding βGU) it was 8.6 nM; in data set [5] (No βGU), 518 nM; in [7] (Adding βGU (β-glucuronidase)), 5.4 nM; in data set [7] (setting [20]), 220 nM. The half-maximal inhibitory concentration (IC50) in data set [8] (Adding βGU) is 12.5 nM; in data set [8] (No βGU), 782 nM; in [9] (Adding βGU), 2.6 nM; in data set [9] (No βGU) it was 283 nM; in [10] (Adding βGU), 6.5 nM; in [10] (No βGU), 212 nM. Further, the IC50 worked out at 5.9 nM in data set [11] (Adding βGU), 244 nM in [11] (No βGU), 8.4 nM in data set [12] (Adding βGU) and 225 nM in data set [12] (No βGU). The “T/C (%)” value was found to be 27.2% in data set [13] and 3.7% in data set [15]. The “Tumor inhibition rate (%)” value in data set [13] is recorded as 76.8%; in [15], 96.0%. Besides, the “Relative volume RTV (X ± S.D.)” value in [15] is given as 0.25 ± 0.25. Moreover, the “Tumor weight (g, X ± S.D.)” value in data set [15] came to 0.039 ± 0.049 g.

With “(2S,3S,4S,5R,6S)-6-(3-((1-(2-((4′-((E)-(8-amino-1-hydroxy-5,7-disulfonicnaphthalen-2-yl)diazenyl)-3,3′-dimethyl-[1,1′-biphenyl]-4-yl)amino)-2-oxoethyl)-1H-1,2,3-triazol-4-yl)methoxy)-4-((((S)-4,11-diethyl-4-hydroxy-3,14-dioxy-3,4,12,14-tetrahydro-1H-pyrano[3′,4′:6,7]indolazino[1,2-b]quinolin-9-yl)oxy)methyl)phenoxy)-3,4,5-trihydroxytetrahydro-2H-pyran-2-carboxylate trisodium [Example 90]”, the results for the “T/C (%)” value in data set [13], in [16] and in [17] were 23.7%, 23.9% and 25.3%, respectively. Further, the “Tumor inhibition rate (%)” value in data set [13] was 81.7%; in data set [16], 77.0%; in [17] it was 83.5%. Also, the “Relative volume RTV (X ± S.D.)” value was found to be 0.89 ± 0.10 in data set [16] and 1.30 ± 0.36 in data set [17]. The “Tumor weight (g, X ± S.D.)” value in [16] is given as 0.627 ± 0.408 g; in [17] it was 0.197 ± 0.085 g. Besides, the 50% inhibitory concentration (IC50) in [14] (Adding βGU) stood at 23 nM; in data set [14] (No βGU), 839 nM; in [10] (Adding βGU) it was 4.3 nM; in data set [10] (No βGU) it was 79 nM.

For the substance “(2S,3S,4S,5R,6S)-6-(3-((1-(5-((4′-((E)-(8-amino-1-hydroxy-5,7-disulfonicnaphthalen-2-yl)diazenyl)-3,3′-dimethyl-[1,1′-biphenyl]-4-yl)amino)-5-oxopentyl)-1H-1,2,3-triazol-4-yl)methoxy)-4-((((S)-4,11-diethyl-4-hydroxy-3,14-dioxy-3,4,12,14-tetrahydro-1H-pyrano[3′,4′:6,7]indolazino[1,2-b]quinolin-9-yl)oxy)methyl)phenoxy)-3,4,5-trihydroxytetrahydro-2H-pyran-2-carboxylate trisodium [Example 85]”, the IC50 in data set [1] (Adding βGU) was determined as 15 nM; in data set [1] (No βGU) it was 706 nM; in data set [3] (Adding βGU) it was 50 nM; in [3] (No βGU), 721 nM; in [14] (Adding βGU), 31 nM; in [14] (No βGU) it was 178 nM. Besides, the IC50 was 19 nM in [8] (Adding βGU); 864 nM in data set [8] (No βGU); 9.7 nM in data set [10] (Adding βGU); 71 nM in [10] (No βGU); 9 nM in data set [12] (Adding βGU); 248 nM in [12] (No βGU). Also, the “Relative volume RTV (X ± S.D.)” value is on record as 0.48 ± 0.11 in data set [18] (setting [21]), 0.23 ± 0.05 in data set [19] and 0.67 ± 0.24 in data set [17]. Moreover, the “T/C (%)” value is given as 13.7% in [18] (setting [21]), 4.8% in data set [19] and 13.0% in [17]. Moreover, the “Tumor inhibition rate (%)” value turned out to be 90.0% in [18] (setting [21]), 97.2% in data set [19] and 93.6% in data set [17]. For the same substance, the figures for the “Tumor weight (g, X ± S.D.)” value in data set [18] (setting [21]), in data set [19] and in [17] were 0.301 ± 0.051 g, 0.047 ± 0.027 g and 0.076 ± 0.014 g, respectively. The “Final body weight change (%)” value in data set [18] (BxPC-3 tumors more than 600 mm^3 after irinotecan 100 mg/kg i.p. qw × 2) came out at 0.4%; in data set [19] (nude mouse), 4.0%; in data set [17] (20 mg/kg i.v. qw × 2, nude mouse), 10.0%.

Usually IC50 stands for the point on the concentration scale where inhibition reaches its midpoint.

The values above are taken from patent publication US20250325676A1, “CAMPTOTHECIN PRODRUG AND PHARMACEUTICAL COMPOSITION THEREOF” (TIANJIN HEMAY ONCOLOGY PHARMACEUTICAL CO., LTD, priority 2022, published 2025).
